# Assay results as given in patent US7238864B2, “Acetolactate synthase gene promoter” (priority 2004, dated 2007).
# What was measured:
# ALS [1] = target: T1, ALS (Oryza sativa subsp. japonica, UniProt Q6K2E8); test: in vivo ALS assay on cut rice leaves (red colour development); type: cell-based; conditions: wild-type rice leaves, 0.15 μM (final concentration) BS, 30 °C under light for 1 day
# T1 construct: 150 mg of leaves were sampled, finely cut, and then put into a petri dish; from tissue; host or cells: rice leaves (wild-type plants)
# T1 sequence (Q6K2E8 44-644): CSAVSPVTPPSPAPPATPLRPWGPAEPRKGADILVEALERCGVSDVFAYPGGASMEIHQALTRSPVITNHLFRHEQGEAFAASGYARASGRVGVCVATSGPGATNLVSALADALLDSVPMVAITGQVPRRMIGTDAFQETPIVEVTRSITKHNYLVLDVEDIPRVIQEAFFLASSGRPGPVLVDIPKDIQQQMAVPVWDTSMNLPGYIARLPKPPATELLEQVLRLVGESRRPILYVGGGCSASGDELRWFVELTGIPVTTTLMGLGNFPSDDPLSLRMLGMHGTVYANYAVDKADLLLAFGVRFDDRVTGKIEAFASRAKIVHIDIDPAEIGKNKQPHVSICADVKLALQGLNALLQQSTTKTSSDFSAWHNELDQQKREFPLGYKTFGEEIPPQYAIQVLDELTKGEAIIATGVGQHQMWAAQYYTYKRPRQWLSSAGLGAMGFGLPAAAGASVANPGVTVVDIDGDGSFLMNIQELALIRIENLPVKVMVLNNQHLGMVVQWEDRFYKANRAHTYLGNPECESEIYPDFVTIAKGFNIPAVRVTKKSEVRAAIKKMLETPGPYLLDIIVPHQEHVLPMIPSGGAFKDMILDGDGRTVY
# Protocol: (§1) A treatment solution (mixed salts for 25% MS media; 500 μM (final concentration) 1,1-cyclopropanedicarboxilic acid (CPCA); 5 μg Triton X-100; and 0.15 μM (final concentration) BS) was added to the dish, and the resultant was allowed to stand at 30 ° C. under light conditions (140001×) for 1 day. After reaction, the treated leaves were put into a 1.5 ml micro tube and then 200 μl of distilled water containing 0.025% Triton X-100 was added thereto. After the solution had been allowed to stand at 60° C. for 5 minutes, extraction was carried out with sonication (frequency of 40 kHz) for 15 minutes. 200 μl of the supernatant was transferred into another tube, 20 μl of 5% (v/v) sulfuric acid was added thereto, and then the resultant was allowed to stand at 60° C. for 30 minutes. Subsequently, 100 μl of a 0.5% (w/v) creatine and 100 μl of a 5% (w/v) 1-naphthol (prepared at the time of use) dissolved in a 2.5 N NaOH solution were added to the solution. The solution was allowed to stand at 37° C. for 30 minutes. […] It is understood that in the case of wild-type rice, the ALS gene was inhibited by addition of BS so that a red color was not developed.
# ALS [2] = target: T2, ALS (Oryza sativa subsp. japonica, UniProt Q6K2E8, S627I/W548L); test: as above; type: cell-based; conditions: leaves of rice with the ALS-promoter-driven BS-resistance (two-point mutated) ALS gene, 0.15 μM BS, 30 °C under light for 1 day
# T2 construct: 150 mg of leaves were sampled, finely cut, and then put into a petri dish; from tissue; host or cells: rice leaves (wild-type plants)
# T2 sequence (Q6K2E8 44-644 W548L/S627I): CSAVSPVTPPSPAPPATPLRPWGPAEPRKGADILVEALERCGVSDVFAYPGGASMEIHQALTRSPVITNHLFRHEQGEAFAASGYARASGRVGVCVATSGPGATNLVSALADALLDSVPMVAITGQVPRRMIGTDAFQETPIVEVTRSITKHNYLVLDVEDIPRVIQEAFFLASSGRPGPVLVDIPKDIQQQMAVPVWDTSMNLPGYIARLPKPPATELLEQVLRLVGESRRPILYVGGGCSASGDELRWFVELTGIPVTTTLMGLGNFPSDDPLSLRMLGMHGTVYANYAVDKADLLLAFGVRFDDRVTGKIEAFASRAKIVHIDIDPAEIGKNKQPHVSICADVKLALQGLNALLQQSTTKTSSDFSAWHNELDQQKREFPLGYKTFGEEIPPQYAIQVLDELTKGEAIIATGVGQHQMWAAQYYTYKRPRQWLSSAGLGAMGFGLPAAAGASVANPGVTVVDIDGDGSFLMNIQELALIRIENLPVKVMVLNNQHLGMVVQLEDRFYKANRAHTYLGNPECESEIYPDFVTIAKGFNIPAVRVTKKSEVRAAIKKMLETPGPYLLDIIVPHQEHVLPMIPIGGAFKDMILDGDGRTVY
# Protocol: as §1
structure (smiles),measurement,setting,value
"COc1cc(OC)nc(Oc2cccc(Oc3nc(OC)cc(OC)n3)c2C(=O)[O-])n1.[Na+] [BS, Bispyribac sodium salt]",ALS inhibition by addition of BS (red color development),ALS [1],inhibited
same,ALS activity with BS added (red color development),ALS [2],development of a red color similar to that developed by a group of rice plants to which no BS had been added
